Where a name gives a salt, the structure may show the parent alone.
Each compound was assayed on Acinetobacter baumannii ATCC17961 (assay: Antimicrobial susceptibility testing: 90% growth inhibitory concentration (IC90) determination in Iso-Sensitest broth, OD600 growth). Settings: Acinetobacter baumannii, ATCC17961, 16 h, read-out: A. baumannii ATCC 17961 IC90 (uM), strain ATCC 17961, OD600 growth over 16 h.
Type: cell-based
Method in brief: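 OD600 read every 20 min for 16 h at 35±2° C; inhibition taken in log phase to derive IC90. Twofold, 10-point dilutions (e.g. 50–0.097 μM final), inoculum ~5×10^(5) CFU/ml.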

Compared with `CCc1cc(Nc2nccn3c(-c4cn(CC5CCOC5)nc4C(F)(F)F)cnc23)ccc1C(=O)NCCOCCN` (centres unmarked) [Example 307, N-[2-(2-aminoethoxy)ethyl]-2-ethyl-4-[[3-[1-(oxolan-3-ylmethyl)-3-(trifluoromethyl)pyrazol-4-yl]imidazo[1,2-a]pyrazin-8-yl]amino]benzamide formate], `CCc1cc(Nc2nccn3c(-c4cn(CC(N)=O)nc4C(F)(F)F)cnc23)ccc1C(=O)NCCOCCN` [Example 316, N-[2-(2-aminoethoxy)ethyl]-4-[[3-[1-(2-amino-2-oxoethyl)-3-(trifluoromethyl)pyrazol-4-yl]imidazo[1,2-a]pyrazin-8-yl]amino]-2-ethylbenzamide formate] is 3-fold higher in IC90: 0.514 µM for the first, 1.52 µM for the second.

`CCc1cc(Nc2nccn3c(-c4cn(CCN(C)C)nc4C(F)(F)F)cnc23)ccc1C(=O)NCCOCCN` [Example 309, N-[2-(2-aminoethoxy)ethyl]-4-[[3-[1-[2-(dimethylamino)ethyl]-3-(trifluoromethyl)pyrazol-4-yl]imidazo[1,2-a]pyrazin-8-yl]amino]-2-ethylbenzamide formate] and `CCc1cc(Nc2nccn3c(-c4cn(CCC(C)(C)O)nc4C(F)(F)F)cnc23)ccc1C(=O)NCCOCCN` [Example 311, N-[2-(2-aminoethoxy)ethyl]-2-ethyl-4-[[3-[1-(3-hydroxy-3-methylbutyl)-3-(trifluoromethyl)pyrazol-4-yl]imidazo[1,2-a]pyrazin-8-yl]amino]benzamide formate] are within 1.5-fold of each other in IC90: 0.618 µM for the first, 0.769 µM for the second.

`CCOC(=O)Cn1cc(-c2cnc3c(Nc4ccc(C(=O)NCCOCCN)c(CC)c4)nccn23)c(C(F)(F)F)n1` [Example 310, ethyl 2-[4-[8-[4-[2-(2-aminoethoxy)ethylcarbamoyl]-3-ethylanilino]imidazo [1,2-a]pyrazin-3-yl]-3-(trifluoromethyl)pyrazol-1-yl]acetate formate] and `CCc1cc(Nc2nccn3c(-c4cn(CCCO)nc4C(F)(F)F)cnc23)ccc1C(=O)NCCOCCN` [Example 312, N-[2-(2-aminoethoxy)ethyl]-2-ethyl-4-[[3-[1-(3-hydroxypropyl)-3-(trifluoromethyl)pyrazol-4-yl]imidazo[1,2-a]pyrazin-8-yl]amino]benzamide formate] are within 1.5-fold of each other in IC90: 0.719 µM for the first, 0.839 µM for the second.

`CCc1cc(Nc2nccn3c(-c4cn(CC(O)CO)nc4C(F)(F)F)cnc23)ccc1C(=O)NCCOCCN` (centres unmarked) [Example 314, N-[2-(2-aminoethoxy)ethyl]-4-[[3-[1-(2,3-dihydroxypropyl)-3-(trifluoromethyl)pyrazol-4-yl]imidazo[1,2-a]pyrazin-8-yl]amino]-2-ethylbenzamide formate] and `CCc1cc(Nc2nccn3c(-c4cn(CC(O)CCO)nc4C(F)(F)F)cnc23)ccc1C(=O)NCCOCCN` (centres unmarked) [Example 315, N-[2-(2-aminoethoxy)ethyl]-4-[[3-[1-(2,4-dihydroxybutyl)-3-(trifluoromethyl)pyrazol-4-yl]imidazo[1,2-a]pyrazin-8-yl]amino]-2-ethylbenzamide formate] are within 1.5-fold of each other in IC90: 1.43 µM for the first, 1.46 µM for the second.

Going from `CCc1cc(Nc2nccn3c(-c4cn(CCN5CCOCC5)nc4C(F)(F)F)cnc23)ccc1C(=O)NCCOCCN` [Example 317, N-[2-(2-aminoethoxy)ethyl]-2-ethyl-4-[[3-[1-(2-morpholin-4-ylethyl)-3-(trifluoromethyl)pyrazol-4-yl]imidazo[1,2-a]pyrazin-8-yl]amino]benzamide formate] to `NC1CC(C(=O)N2CCN(C(=O)c3ccc(Nc4nccn5c(-c6c[nH]nc6C(F)(F)F)cnc45)cc3Cl)CC2)C1` (centres unmarked) [Example 327, [4-(3-aminocyclobutanecarbonyl)piperazin-1-yl]-[2-chloro-4-[[3-[3-(trifluoromethyl)-1H-pyrazol-4-yl]imidazo[1,2-a]pyrazin-8-yl]amino]phenyl]methanone formate], the IC90 falls from 1.88 µM to 0.146 µM (13-fold).

`N[C@@H]1CCN(C(=O)N2CCN(C(=O)c3ccc(Nc4nccn5c(-c6c[nH]nc6C(F)(F)F)cnc45)cc3Cl)CC2)C1` [Example 326, [4-[(3R)-3-aminopyrrolidine-1-carbonyl]piperazin-1-yl]-[2-chloro-4-[[3-[3-(trifluoromethyl)-1H-pyrazol-4-yl]imidazo[1,2-a]pyrazin-8-yl]amino]phenyl]methanone formate] and `N[C@H]1CCN(C(=O)N2CCN(C(=O)c3ccc(Nc4nccn5c(-c6c[nH]nc6C(F)(F)F)cnc45)cc3Cl)CC2)C1` [Example 328, [4-[(3S)-3-aminopyrrolidine-1-carbonyl]piperazin-1-yl]-[2-chloro-4-[[3-[3-(trifluoromethyl)-1H-pyrazol-4-yl]imidazo[1,2-a]pyrazin-8-yl]amino]phenyl]methanone formate] are within 1.5-fold of each other in IC90: 0.135 µM for the first, 0.157 µM for the second.

Same assay, conditions: Acinetobacter baumannii, ATCC17961, 16 h, strain ATCC 17961, OD600 growth over 16 h, read-out: A. baumannii ATCC 17961 IC90

Going from `O=C(N[C@@H]1CCN(C(=O)[C@@H]2C[C@@H](O)CN2)C1)c1ccc(Nc2nccn3c(-c4c[nH]nc4C(F)(F)F)cnc23)cc1Cl` [Example 308, 2-chloro-N-[(3R)-1-[(2S,4R)-4-hydroxypyrrolidine-2-carbonyl]pyrrolidine-3-yl]-4-[[3-[3-(trifluoromethyl)-1H-pyrazol-4-yl]imidazo[1,2-a]pyrazin-8-yl]amino]benzamide] to `O=C(N[C@H]1CCN(C(=O)[C@@H]2C[C@@H](O)CN2)C1)c1ccc(Nc2nccn3c(-c4c[nH]nc4C(F)(F)F)cnc23)cc1Cl` [Example 313, 2-chloro-N-[(3S)-1-[(2S,4R)-4-hydroxypyrrolidine-2-carbonyl]pyrrolidin-3-yl]-4-[[3-[3-(trifluoromethyl)-1H-pyrazol-4-yl]imidazo[1,2-a]pyrazin-8-yl]amino]benzamide], the IC90 rises from 0.525 µM to 0.995 µM (1.9-fold).

Compared with `NC1CCN(C(=O)c2ccc(Nc3nccn4c(-c5c[nH]nc5C(F)(F)F)cnc34)cc2Cl)CC1` [Example 318, (4-aminopiperidin-1-yl)-[2-chloro-4-[[3-[3-(trifluoromethyl)-1H-pyrazol-4-yl]imidazo[1,2-a]pyrazin-8-yl]amino]phenyl]methanone], `N[C@H]1CCN(C(=O)c2ccc(Nc3nccn4c(-c5c[nH]nc5C(F)(F)F)cnc34)cc2Cl)C1` [Example 320, [(3S)-3-aminopyrrolidin-1-yl]-[2-chloro-4-[[3-[3-(trifluoromethyl)-1H-pyrazol-4-yl]imidazo[1,2-a]pyrazin-8-yl]amino]phenyl]methanone] is 1.7-fold higher in IC90: 0.411 µM for the first, 0.705 µM for the second.

First: CCc1cc(Nc2nccn3c(-c4c[nH]nc4C(F)(F)F)cnc23)ccc1C(=O)NCCCCCN [Example 319, N-(5-aminopentyl)-2-ethyl-4-[[3-[3-(trifluoromethyl)-1H-pyrazol-4-yl]imidazo[1,2-a]pyrazin-8-yl]amino]benzamide hydrochloride]
Second: CCc1cc(Nc2nccn3c(-c4cn(CC#N)nc4C(F)(F)F)cnc23)ccc1C(=O)NCCCCCN [Example 329, N-(5-aminopentyl)-4-[[3-[1-(cyanomethyl)-3-(trifluoromethyl)pyrazol-4-yl]imidazo[1,2-a]pyrazin-8-yl]amino]-2-ethylbenzamide]
The IC90 of the first is 2.1-fold higher: 0.438 µM for the first, 0.211 µM for the second.

`C[C@H]1CN(C(=O)c2ccc(Nc3nccn4c(-c5c[nH]nc5C(F)(F)F)cnc34)cc2Cl)CCN1` [Example 321, [2-chloro-4-[[3-[3-(trifluoromethyl)-1H-pyrazol-4-yl]imidazo[1,2-a]pyrazin-8-yl]amino]phenyl]-[(3S)-3-methylpiperazin-1-yl]methanone] and `C[C@@H]1CN(C(=O)c2ccc(Nc3nccn4c(-c5c[nH]nc5C(F)(F)F)cnc34)cc2Cl)CCN1` [Example 323, [2-chloro-4-[[3-[3-(trifluoromethyl)-1H-pyrazol-4-yl]imidazo[1,2-a]pyrazin-8-yl]amino]phenyl]-[(3R)-3-methylpiperazin-1-yl]methanone] are within 1.5-fold of each other in IC90: 0.901 µM for the first, 1.05 µM for the second.

`CN(CCN)C(=O)c1ccc(Nc2nccn3c(-c4c[nH]nc4C(F)(F)F)cnc23)cc1Cl` [Example 322, N-(2-aminoethyl)-2-chloro-N-methyl-4-[[3-[3-(trifluoromethyl)-1H-pyrazol-4-yl]imidazo[1,2-a]pyrazin-8-yl]amino]benzamide] and `N[C@@H]1CCN(C(=O)c2ccc(Nc3nccn4c(-c5c[nH]nc5C(F)(F)F)cnc34)cc2Cl)C1` [Example 324, [(3R)-3-aminopyrrolidin-1-yl]-[2-chloro-4-[[3-[3-(trifluoromethyl)-1H-pyrazol-4-yl]imidazo[1,2-a]pyrazin-8-yl]amino]phenyl]methanone] are within 1.5-fold of each other in IC90: 0.97 µM for the first, 1.23 µM for the second.

Compared with `C[C@H]1CNCCN1C(=O)c1ccc(Nc2nccn3c(-c4c[nH]nc4C(F)(F)F)cnc23)cc1Cl` [Example 325, [2-chloro-4-[[3-[3-(trifluoromethyl)-1H-pyrazol-4-yl]imidazo[1,2-a]pyrazin-8-yl]amino]phenyl]-[(2S)-2-methylpiperazin-1-yl]methanone], `Cc1cc(Nc2nccn3c(-c4c[nH]nc4C(F)(F)F)cnc23)ccc1C(=O)N1CCN(C(=O)[C@@H]2CCNC2)CC1` [Example 332, [2-methyl-4-[[3-[3-(trifluoromethyl)-1H-pyrazol-4-yl]imidazo[1,2-a]pyrazin-8-yl]amino]phenyl]-[4-[(3R)-pyrrolidine-3-carbonyl]piperazin-1-yl]methanone] is 4-fold lower in IC90: 2.02 µM for the first, 0.509 µM for the second.

`Cc1cc(Nc2nccn3c(-c4c[nH]nc4C(F)(F)F)cnc23)ccc1C(=O)N1CCN(C(=O)[C@H](C)N)CC1` [Example 331, (2S)-2-amino-1-[4-[2-methyl-4-[[3-[3-(trifluoromethyl)-1H-pyrazol-4-yl]imidazo[1,2-a]pyrazin-8-yl]amino]benzoyl]piperazin-1-yl]propan-1-one] gave an IC90 of 0.401 µM.

Same assay, conditions: read-out: A. baumannii ATCC 17961 IC90, strain ATCC 17961, OD600 growth over 16 h, formate

`NC1CC(C(=O)N2CCN(C(=O)c3ccc(Nc4nccn5c(-c6c[nH]nc6C(F)(F)F)cnc45)cc3Cl)CC2)C1` (centres unmarked) [Example 330, [4-(3-aminocyclobutanecarbonyl)piperazin-1-yl]-[2-chloro-4-[[3-[3-(trifluoromethyl)-1H-pyrazol-4-yl]imidazo[1,2-a]pyrazin-8-yl]amino]phenyl]methanone formate] gave an IC90 of 0.275 µM.
